# Laboratory results reported in PMC9975351 (Frontiers in Pharmacology, 2023).
# T1: CES1 (Homo sapiens, UniProt P23141)
# T1 construct: purchased Cypex (Dundee, UK)
# T1 sequence (P23141 18-567): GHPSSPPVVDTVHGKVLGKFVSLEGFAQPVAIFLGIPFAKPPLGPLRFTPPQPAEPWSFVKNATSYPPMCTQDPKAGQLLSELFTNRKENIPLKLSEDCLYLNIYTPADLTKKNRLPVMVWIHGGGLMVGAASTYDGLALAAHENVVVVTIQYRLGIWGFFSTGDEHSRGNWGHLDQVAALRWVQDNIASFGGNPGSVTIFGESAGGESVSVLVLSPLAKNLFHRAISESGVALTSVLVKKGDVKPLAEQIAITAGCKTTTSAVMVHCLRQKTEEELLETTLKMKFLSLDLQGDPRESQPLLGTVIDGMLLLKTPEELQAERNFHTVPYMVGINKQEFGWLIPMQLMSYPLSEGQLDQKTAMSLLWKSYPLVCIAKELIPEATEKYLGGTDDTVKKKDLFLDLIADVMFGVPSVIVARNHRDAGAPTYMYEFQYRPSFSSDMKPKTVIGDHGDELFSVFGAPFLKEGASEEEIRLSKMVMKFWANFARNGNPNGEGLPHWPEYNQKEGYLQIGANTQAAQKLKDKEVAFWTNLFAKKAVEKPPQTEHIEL
# T2: CES2 (Homo sapiens, UniProt O00748)
# T2 construct: purchased Cypex (Dundee, UK)
# T2 sequence (O00748 27-559): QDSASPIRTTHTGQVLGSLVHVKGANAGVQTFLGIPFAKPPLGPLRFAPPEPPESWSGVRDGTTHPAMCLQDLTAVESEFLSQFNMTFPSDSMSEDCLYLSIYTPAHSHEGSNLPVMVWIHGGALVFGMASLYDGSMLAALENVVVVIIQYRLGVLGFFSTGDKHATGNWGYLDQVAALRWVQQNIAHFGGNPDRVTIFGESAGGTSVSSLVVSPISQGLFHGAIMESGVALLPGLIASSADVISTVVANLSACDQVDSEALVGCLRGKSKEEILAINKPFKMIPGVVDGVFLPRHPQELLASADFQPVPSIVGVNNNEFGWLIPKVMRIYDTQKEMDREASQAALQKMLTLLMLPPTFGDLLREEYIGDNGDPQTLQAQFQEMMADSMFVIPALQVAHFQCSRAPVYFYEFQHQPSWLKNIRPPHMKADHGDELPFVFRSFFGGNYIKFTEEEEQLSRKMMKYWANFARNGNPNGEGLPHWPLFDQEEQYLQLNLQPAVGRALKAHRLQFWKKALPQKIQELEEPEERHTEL
# Tests used:
# [1] = Metabolic stability and metabolite formation in pooled human liver microsomes with NADPH and/or UDPGA; format: in vitro ADME; settings: human, microsomes, pH 7.4, Half-life
# Experimental: Microsomal incubation was conducted in triplicate using 0.1 M potassium phosphate buffer (PPB, pH 7.4) in eight-well tube strips in an 8 × 12 rack (1.2 mL; VWR, Emeryville, CA, United States). […] The mixture was pre-incubated at 37°C with shaking at approximately 100 rpm for 5 min. UGT glucuronidation was performed with HLMs (1 mg/mL) and alamethicin (25 μg/mg microsomal protein) in a 100-mM PPB (pH 7.4) solution on ice for 15 min. […] CYP, UGT, and combined reactions were initiated by addition of the NADPH regenerating system, UDPGA (1 mM), and both, respectively. […] The incubation mixtures were then centrifuged at 2,000 × g and 4°C for 20 min, and the supernatants were analyzed by LC-QTOF HRMS.
# The incubation mixtures were pre-incubated at 37°C in a shaking water bath at approximately 100 rpm for 5 min. Reactions were initiated by the addition of an NADPH-regenerating system. The reaction was terminated, centrifuged then analyzed using the same method described above.
# (§1) In the microsomal stability analysis, degradation half-life (t½) values were calculated using the following equation: t½=0.693/k where k is the first-order degradation rate constant, estimated by one-phase exponential-decay non-linear regression of the degradation time-course data using Graph Pad Prism 8.0 (Graph Pad Software Inc., San Diego, CA, United States). In vitro metabolic stability parameters, microsomal intrinsic clearance (CLint,mic), apparent intrinsic clearance (CL′int), and hepatic clearance (CLh), were calculated according to the well-stirred model approach ([Pang and Rowland, 1977]; [Baranczewski et al., 2006]). The apparent kinetic parameters of GRL0617 metabolism were determined by fitting a one-enzyme Michaelis-Menten equation. […] All data are presented as mean ± SD. Data were compared between groups using the unpaired Student’s t-test. The significance level was set at p < 0.05, unless indicated otherwise.
# [2] = format: physicochemical; settings: human, microsomes, 3 h
# Experimental: (§2) All other generated metabolites area was less than 1% of the parent area/internal standard area. […] HY-17542 underwent deacetylation rapidly in HLM incubated with or without NADPH (Figures 4A, B). The calculated half-lives for NADPH-dependent metabolism and NADPH-independent degradation were 5.26 and 10.83 min, respectively. We incubated HY-17542 without HLM and NADPH to 180 min in the phosphate buffer condition. […] CES 1 or 2 was possible enzyme responsible for the deacetylation. […] HY-17542 metabolites in HLM incubated with NADPH are presented in Figures 4C, D. M1 and M3 were also detected from HY-17542 in a time-dependent manner.
# [3] = molecular target: T1, CES1; experiment: Incubation with recombinant CES1; format: in vitro ADME; settings: 1 µM
# Experimental: as §2
# (§3) FIGURE 4 Metabolic stability of HY-17542 in HLMs. (A) 1 µM of HY-17542 was incubated with HLMs in the presence or absence of NADPH and incubated with recombinant CES 1 or CES2. […] (C) Formation of M1 in the incubation of 1 µM of HY-17542 in HLMs with NADPH. (D) Formation of M3 in the incubation of 1 µM of HY-17542 in HLMs with NADPH. Data are presented as mean ± SD from three independent samples (n = 3). (E) Representative chromatogram of GRL0617 and its metabolites in the presence of a NADPH-generating system from QTOF MS analysis.
# [4] = molecular target: T2, CES2; experiment: Incubation with recombinant CES2; format: in vitro ADME; settings: 1 µM
# Experimental: as §2, §3
# [5] = substrate: Cc1ccc(N)cc1C(=O)N[C@H](C)c1cccc2ccccc12; experiment: not read; settings: other: M1 formation, recombinant CYP2D6, 10 min; 95% CI in parentheses; pH 7.4; 37.0 °C
# [6] = substrate: Cc1ccc(N)cc1C(=O)N[C@H](C)c1cccc2ccccc12; experiment: not read; format: in vitro ADME, human; settings: other: M1 formation, recombinant CYP3A5, 10 min; 95% CI in parentheses; pH 7.4; 37.0 °C
# Experimental: Reactions were conducted in triplicate using 0.1 M PPB (pH 7.4) in eight-well tube strips in an 8 × 12 rack. […] The mixture was pre-incubated at 37°C with shaking at approximately 100 rpm for 5 min. Reactions were initiated by the addition of the NADPH-regenerating system and quenched with 200 µL ice-cold acetonitrile containing 50 nM CBZ. The samples were centrifuged at 1,000 × g and 4°C for 20 min, and the supernatants were subjected to LC-QTOF HRMS. […] The reaction was incubated, initiated, terminated, centrifuged then analyzed using the same method described above.
# as §1, with “Data were compared between groups using the unpaired Student’s t-test. The significance level was set at p < 0.05, unless indicated otherwise.” left out
molecule,measurement,setting,value
"CC(=O)Nc1ccc(C)c(C(=O)N[C@H](C)c2cccc3ccccc23)c1 [HY-17542, 5-[acetylamino]-2-methyl-N-[(1R)-1-(1-naphthalenyl)ethyl]benzamide]",half-life at 1 µM,[1],5.26 min
same,half-life at 1 µM,[1]; NADPH-independent degradation,10.8 min
same,Remaining compound,[2],99.89 ± 7.69%
same,Effect on HY-17542 concentration,[3],did not affect HY-17542 concentration
same,HY-17542 concentration remaining,[4],88.01 ± 10.5%
CYP2D6 (Homo sapiens) (protein) MGLEALVPLAVIVAIFLLLVDLMHRRQRWAARYPPGPLPLPGLGNLLHVDFQNTPYCFDQLRRRFGDVFSLQLAWTPVVVLNGLAAVREALVTHGEDTADRPPVPITQILGFGPRSQGVFLARYGPAWREQRRFSVSTLRNLGLGKKSLEQWVTEEAACLCAAFANHSGRPFRPNGLLDKAVSNVIASLTCGRRFEYDDPRFLRLLDLAQEGLKEESGFLREVLNAVPVLLHIPALAGKVLRFQKAFLTQLDELLTEHRMTWDPAQPPRDLTEAFLAEMEKAKGNPESSFNDENLRIVVADLFSAGMVTTSTTLAWGLLLMILHPDVQRRVQQEIDDVIGQVRRPEMGDQAHMPYTTAVIHEVQRFGDIVPLGVTHMTSRDIEVQGFRIPKGTTLITNLSSVLKDEAVWEKPFRFHPEHFLDAQGHFVKPEAFLPFSAGRRACLGEPLARMELFLFFTSLLQHFSFSVPTGQPRPSHHGVFAFLVSPSPYELCAVPR,Km,[5],85.1 (69.4–107.8) µM
"CYP3A5 (Homo sapiens) (protein, purchased Cypex (Dundee, UK); host or cells: bactosomes (bacterial membranes)) MDLIPNLAVETWLLLAVSLVLLYLYGTRTHGLFKRLGIPGPTPLPLLGNVLSYRQGLWKFDTECYKKYGKMWGTYEGQLPVLAITDPDVIRTVLVKECYSVFTNRRSLGPVGFMKSAISLAEDEEWKRIRSLLSPTFTSGKLKEMFPIIAQYGDVLVRNLRREAEKGKPVTLKDIFGAYSMDVITGTSFGVNIDSLNNPQDPFVESTKKFLKFGFLDPLFLSIILFPFLTPVFEALNVSLFPKDTINFLSKSVNRMKKSRLNDKQKHRLDFLQLMIDSQNSKETESHKALSDLELAAQSIIFIFAGYETTSSVLSFTLYELATHPDVQQKLQKEIDAVLPNKAPPTYDAVVQMEYLDMVVNETLRLFPVAIRLERTCKKDVEINGVFIPKGSMVVIPTYALHHDPKYWTEPEEFRPERFSKKKDSIDPYIYTPFGTGPRNCIGMRFALMNMKLALIRVLQNFSFKPCKETQIPLKLDTQGLLQPEKPIVLKVDSRDGTLSGE",Km,[6],8.5 (7.6–9.5) µM
